Laboratory results reported in US20030190325A1, “Novel peroxiredoxin defense system from mycobacterium tuberculosis” (priority 2002, published 2003).
Like-named read-outs stand apart in the source and are kept apart here.

Key:
[1] = target: T1, Lpd, SucB, AhpD (Mycobacterium tuberculosis, UniProt P9WHH9+P9WIS7+P9WQB5); assay: DTNB screening assay (Lpd/SucB/AhpD protein mixture); assay type: biochemical; settings: for Target: which of the 3 enzymes (AhpD, Lpd, SucB) is inhibited, and mode of inhibition
T1 construct: Lpd and SucB ORFs were amplified by PCR from M. tuberculosis H37Rv genomic DNA; The AhpD open reading frame (ORF) was amplified by PCR with engineered 5′ NdeI and 3′ NheI sites and cloned into pET11c; made in house; host or cells: E. coli BL21(DE3), pET11c
T1 sequence (P9WHH9 1-464): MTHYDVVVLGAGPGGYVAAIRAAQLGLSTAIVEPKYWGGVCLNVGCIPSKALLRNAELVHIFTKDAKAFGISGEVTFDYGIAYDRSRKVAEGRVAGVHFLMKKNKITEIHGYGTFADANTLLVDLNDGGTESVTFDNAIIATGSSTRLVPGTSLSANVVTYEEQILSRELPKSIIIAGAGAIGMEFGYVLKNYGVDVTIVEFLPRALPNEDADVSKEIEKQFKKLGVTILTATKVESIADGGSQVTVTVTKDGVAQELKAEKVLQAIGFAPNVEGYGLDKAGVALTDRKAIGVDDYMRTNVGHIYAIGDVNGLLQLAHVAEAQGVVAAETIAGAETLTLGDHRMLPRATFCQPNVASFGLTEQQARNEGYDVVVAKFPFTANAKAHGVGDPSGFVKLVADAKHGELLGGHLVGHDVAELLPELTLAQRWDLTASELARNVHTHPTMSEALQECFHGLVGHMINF
T1 sequence (P9WIS7 1-553): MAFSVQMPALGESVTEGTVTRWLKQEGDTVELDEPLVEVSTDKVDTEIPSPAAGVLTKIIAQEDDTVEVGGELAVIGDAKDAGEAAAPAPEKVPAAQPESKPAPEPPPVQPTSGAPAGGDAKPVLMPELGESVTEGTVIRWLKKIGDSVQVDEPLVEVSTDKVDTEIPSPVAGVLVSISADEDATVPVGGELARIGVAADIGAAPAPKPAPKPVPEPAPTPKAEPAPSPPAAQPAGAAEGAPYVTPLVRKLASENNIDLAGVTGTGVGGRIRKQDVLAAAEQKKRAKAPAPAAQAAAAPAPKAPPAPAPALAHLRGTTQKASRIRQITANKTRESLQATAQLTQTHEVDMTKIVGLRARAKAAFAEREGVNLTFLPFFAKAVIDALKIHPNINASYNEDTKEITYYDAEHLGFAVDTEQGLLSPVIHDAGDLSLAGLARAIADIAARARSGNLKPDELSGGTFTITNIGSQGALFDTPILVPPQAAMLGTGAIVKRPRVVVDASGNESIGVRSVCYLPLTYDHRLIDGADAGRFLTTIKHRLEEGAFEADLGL
T1 sequence (P9WQB5 1-177): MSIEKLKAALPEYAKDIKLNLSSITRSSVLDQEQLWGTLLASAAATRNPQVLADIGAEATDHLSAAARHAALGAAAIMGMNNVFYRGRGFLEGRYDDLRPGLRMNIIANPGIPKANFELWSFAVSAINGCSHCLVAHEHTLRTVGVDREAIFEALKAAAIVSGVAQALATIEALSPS
Method: The screen was performed in Falcon Microtest 384-well 30 μl assay plates using the DTNB (5,5′-dithiobis-(2-nitrobenzoic acid)) assay.
The protein mixture (200 nM Lpd, 350 nM SucB, 36 nM AhpD) was dispensed into each well in 10 μl using a multi-channel pump dispenser. Compounds were added to the protein mix by a single dip (1 nl) with a pin-transfer robot. Plates with the protein mix and added compounds were incubated on a shaker for 30 min at room temperature. The concentration of compounds during incubation was 50 μM. Reaction mixture (200 μM NADH, 150 μM DTNB in 100 mM potassium phosphate, pH 7.0, 2 mM EDTA) was added to each well in 10 μl after pre-incubation and the plate was read at 405 nm for “time 0 min” values. Plates were incubated on a shaker for 30 min at room temperature to complete the reaction and were read at 405 nm for “time 30 min.” “Time 0 min” values were subtracted from “time 30 min” values and were taken as an end-point value for the assay. Control wells contained only protein and reaction mixtures without any compounds added and were taken as 100% activity values. The final concentrations of all components during the reaction were as follows: Lpd, 100 nM; SucB, 175 nM; AhpD, 18 nM; NADH, 100 μM; DTNB, 75 μM; potassium phosphate, 50 mM; EDTA, 1 mM; compounds, 25 μM.

[2] = target: T2, AhpD (Mycobacterium tuberculosis, UniProt P9WQB5); assay: Inhibition constant for the enzyme identified as target: AhpD; assay type: biochemical
T2 construct: The AhpD open reading frame (ORF) was amplified by PCR with engineered 5′ NdeI and 3′ NheI sites and cloned into pET11c; made in house; host or cells: E. coli BL21(DE3), pET11c
T2 sequence (P9WQB5 1-177): T1 sequence (P9WQB5 1-177)

SMILES	IC50 ([1]; DTNB assay, 100 nM Lpd, 175 nM SucB, 18 nM AhpD, 100 μM NADH, 75 μM DTNB, pH 7.0, read-out: IC50) [µM]	IC50 [1] [µM]	Target [1]	Ki [2] [µM]
O=C(O)c1ccc(N2C(=O)/C(=C/c3ccc(-c4ccc(Br)cc4)o3)C=C2c2ccccc2)cc1 [2150-0146]	4.2			
Cc1cc(C)cc(/N=C2/NC(=O)/C(=C\c3cc(Br)c(O)c([N+](=O)O)c3)S2)c1 [2368-0687]		10.5	AhpD (Com- pet Inhib.)	5
O=C(O)CCN1C(=O)/C(=C\c2ccc(-c3cccc(C(F)(F)F)c3)o2)SC1=S [2556-0286]		4.4	SucB (Com- pet Inhib.)	
O=C(O)CN1C(=O)/C(=C\c2ccc(-c3cccc(Cl)c3Cl)o2)SC1=S [3229-2113]		8.2	SucB (Com- pet Inhib.)	
